According to patent publication US20180305424A1, “Methods of Inducibly Targeting Chromatin Effectors and Compositions for Use in the Same” (The Board of Trustees of the Leland Stanford Junior …, priority 2015, published 2018):
Where “and” joins values, the source holds several entries; their conditions need not be identical. Identical values can stand only once.

Legend:
Assay type in all cases: cell-based, mouse
[1] = tested on: BAF complex tethering to the Oct4 locus in CiA MEF cells; experiment: OFF/washout experiments: FK1012 competition of rapamycin-tethered BAF complexes, ChIP-qPCR
Experimental: Briefly, adherent CiA MEF cells were treated with 3 nM (final) rapamycin (sirolimus; Sellekchem #S1039) (ON experiments) or 3 nM rapamycin followed by 30 nM FK1012 (OFF/washout experiments) for prescribed times (2.5 minutes-24 hours). For acute time points, cells were harvested rapidly by washing media out once with PBS, scraping cells off plates with a cell scraper, resuspending in CiA fix buffer, and formaldehyde fixing for subsequent ChIP analyses.
(§1) Briefly, for rapid time course assays, adherent CiA MEF cells were washed once in PBS, scraped off plates into fix buffer (50 mM HEPES, 1 mM EDTA, 0.5 mM EGTA, and 100 mM NaCl), resuspended, and immediately formaldehyde fixed. After cross-linking, cells (7-10×10̂6) were washed and sonicated for 13.5 minutes using a Covaris E220 Sonicator (Covaris, Inc., Woburn, Mass.). Chromatin input was reverse crosslinked and evaluated for shearing efficiency and 100-150 μg of chromatin stock was used per immunoprecipitation reaction. […]
(§2) CiA knock-in locus-specific primers were generated with plus (+) and minus (−) direction distances calculated from the middle of the ZFHD1 recruitment domain as well as […] distances calculated from the Oct4 transcription start site (TSS). Briefly, enrichment (bound over input) averages and standard deviations were calculated over n=5 repeat experiments for each primer set. […]

[2] = tested on: DNA accessibility at the Oct4 locus in CiA Oct4 MEF cells; experiment: Transposase (Tn5) chromatin accessibility assay after FK1012 addition; details: post-addition of FK1012 (removal of the BAF complex)
Experimental: Following various recruitment conditions, 5×10̂4 CiA Oct4 MEF cells were harvested, washed once in PBS, once in RSB buffer (10 mM Tris-HCl, pH 7.4, 10 mM NaCl, 3 mM MgCl2), and centrifuged at 500×g for 5 minutes at 4 degrees C. Cells were then lysed in lysis buffer (500 ul RSB buffer+5 ul 10% NP-40) for 5 minutes on ice, spun at 500×g for 5 minutes, resuspended in Tagment DNA/Enzyme Buffer Mix (Illumina Nextera Sample Preparation Kit, Cat. # FC-121-1030), and incubated for 30 minutes at 37° C. Following Tn5 transposase enzyme reaction, DNA was purified using Quiagen MinElute PCR Purification Kit (Cat #28004). Transposed DNA fragments were amplified via qPCR to the appropriate number of cycles and library was purified using a Quiagen PCR Cleanup Kit eluted in 20 ul of elution buffer (10 mM Tris Buffer, pH 8.0). CiA locus-specific qPCR was performed using primers in Supplemental Table 2.

[3] = tested on: BAF complex recruitment to the modified Oct4 (Pou5f1) locus in CiA MEF cells; experiment: Recruitment assay (ON): rapamycin-induced BAF complex recruitment to the CiA Oct4 locus, ChIP-qPCR; details: 24 hours of rapamycin treatment (3 nM); Frb-V5-tagged BAF subunit fusions; CiA MEFs
Excerpt: CiA mouse embryonic fibroblasts (MEFs) containing a modified Oct4 promoter (with 12×ZFHD1 and 6×GAL4 sites upstream of the promoter) were generated, cultured and maintained as previously described (Hathaway et al., “Dynamics and memory of heterochromatin in living cells,” Cell (2012) 149:1447-1460). Briefly, lentiviral delivery constructs bearing an EF1-alpha promoter and either puromycin or blasticidin resistance were generated to contain the constructs described here (FIG. 1a). To generate recruitable forms of BAF complexes, individual subunits (SS18, BRG, BAF47, BAF57) were N-terminally fused to Frb-V5. […]
as §1, with “After cross-linking, cells (7-10×10̂6) were washed and sonicated for 13.5 minutes using a Covaris E220 Sonicator (Covaris, Inc., Woburn, Mass.).” left out
as §2

| Compound | Decrease in BAF complex tethering to the Oct4 locus, FK1012 addition versus rapamycin washout (media change) ([1]; 3 nM rapamycin followed by 30 nM FK1012) | Time at which PRC2 (Ezh2) and PRC1 (Ring1B) began to reappear ([1]; post-addition of FK1012, paralleled by reappearance of H3K27Me3 and H2AUb1) | Time at which inaccessible chromatin began to reform [2] | BAF complex recruitment (fold enrichment over baseline by ChIP-qPCR) [3] |
| --- | --- | --- | --- | --- |
| FK1012 | more rapid, robust decreases | ~2 h | 2.5 to 5 h |  |
| CO[C@H]1C[C@@H]2CC[C@@H](C)[C@@](O)(O2)C(=O)C(=O)N2CCCC[C@H]2C(=O)O[C@H]([C@H](C)C[C@@H]2CC[C@@H](O)[C@H](OC)C2)CC(=O)[C@H](C)/C=C(\C)[C@@H](O)[C@@H](OC)C(=O)[C@H](C)C[C@H](C)/C=C/C=C/C=C/1C [rapamycin] |  |  |  | 20-40 fold and 40-60 fold |
